Experiments:
AAVS1 = assay: CAR insertion efficiency at AAVS1 in primary T-cells; format: cell-based, human
Procedure: T-cells were isolated from human peripheral blood obtained from healthy adults by immune-magnetic negative selection using the EasySep Human T-cell Isolation Kit ([sequence] Technologies). After isolation, T-cells were activated in 25 μL mL^−1 ImmunoCult Human CD3/CD28/CD2 T-Cell Activator ([sequence] Technologies) in ImmunoCult-XF T-Cell Expansion Medium ([sequence] Technologies) containing 12.5 ng mL^−1 Human Recombinant IL-2, 5 ng mL^−1 IL-7, and 5 ng mL^−1 IL-15 ([sequence] Technologies) and seeded at 1.0×10^6 cells mL^−1. Until transfection 48 hours later, the cells were cultured at 37° C., in 5% CO2 incubators.
Donor templates comprising site-specific homology arms, respective promoter, and respective gene (GFP or Hu19 scFv-CD8a-CD28-CD3ζ CAR) were amplified from corresponding pTwist Ampicillin high-copy plasmids (Twist Bioscience) using homology arms-specific PCR primers. […] Purified HDR templates were collected and quantified on NanoDrop One Microvolume UV-Vis Spectrophotometer (ThermoFisher Scientific). […] HDR templates were collected, diluted, and concentrations quantified using Qubit dsDNA HS Assay Kit (ThermoFisher Scientific). […]

CD247 = assay: gNA validation: frameshift (ORF disruption) frequency, CD247; format: cell-based, human; conditions: Jurkat, CRISPResso2 ORF analysis
Procedure: Initial quality assessment of the obtained reads was performed with FastQC36. The sequencing data were aligned and analyzed with the CRISPResso2 software, using CRISPRessoBatch command with the parameters—cleavage_offset 1—quantification_window_size 10—quantification_window_center 1—expand_ambiguous_alignments for the INDEL frequency analysis. For the ORF disruption analysis, CRISPRessoBatch command with the parameters—cleavage_offset 1—coding_seq <EXON_SEQ>—quantification_window_size 0—quantification_window_center 1—expand_ambiguous_alignments was used. Modification rates from the CRISPResso2 software output were analyzed in Excel.
(§1) High-efficiency gNAs identified in our initial analysis were validated by assaying INDEL frequency for the top three or five gNAs for each of the selected immunologically relevant genes (FIG. 15). […] Alternating grey and white zones on the plot represent groups of three to five high-efficiency gNAs per locus. […] Using the CRISPresso2 software, the degree of open reading frame (ORF) disruption for each of the validated gNAs was estimated (FIG. 15). In addition, for four high-efficiency gNAs targeting three different exons at the PDCD1 locus, surface expression of the PDCD1 protein was measured by flow cytometry 4, 7, and 11 days post-transfection (data not shown).
Average fraction of INDELs leading to frameshifts (dashed line) is approx. 66%. […]

AAVS1 locus = assay: INDEL frequency at the AAVS1 locus in Jurkat cells; format: cell-based, human; conditions: MAD7 RNP
Description: The Jurkat T-cell leukemia cell line was used to evaluate the transgene insertion and expression efficiency using CRISPR-MAD7 RNP complexes. […] Specifically. […] Dark grey bars represent mean INDEL frequency using crAAVS1. Light grey bars represent mean modification frequency using crIDTneg (IDT). The HDR inserts comprised eight promoters (Table 4) differing in both size and promoter strength to drive GFP expression (FIG. 21). […] Specifically. […] HDR templates consisting of eight different promoters and flanked with symmetric homology arms of 500 base pairs in the amount of 0.5 μg μL^−1 were used. Size of promoters in base pairs: CMV, 1400; SCP, 970; CMVe-SCP, 1270; CMVmax, 1830; JET. 1100; CAG, 2600; PGK, 1410; EF-1a, 2090. Dark grey bars and circles present mean insertion frequency and cell viability using crAAVS1. Light grey bars represent mean insertion frequency and cell viability using crIDTneg (IDT).

primary Pan-T donors = conditions: primary Pan-T cells, RNP + ssODN, M3814 for 24 hours after transfection
Procedure: The targeted ssODN template (Table 11) was transfected with RNPs in three primary Pan-T donors. Cell pools were harvested post recovery for genotypic evaluation (i.e. modification incorporation via NGS) and also functional analysis (FACS staining).
Conditions were the same as Example 1, and in addition after transfection the cells were treated with the HDR enhancer M3814 for 24 hours to block the NHEJ pathway and 5 thereby increase the incorporation of the ssODN at the on-target side.

PDCD1 protein = assay: Surface expression of the PDCD1 protein by flow cytometry in Jurkat cells; format: cell-based, human; conditions: flow cytometry 4, 7 and 11 days post-transfection, crPDCD1_2 value at day 4, same at day 11
Procedure: For detection of PDCD1 knock-out efficiency, approx. 250,000 Jurkat cells per sample were transferred onto 96-well V-bottom cell culture plates and assessed following a series of consecutive washing and staining steps. The first step included centrifuging the cells at 300 g for 5 minutes at 4° C., and discarding the supernatant. Afterwards, the cells were stained using 100 μL Cell Staining Buffer (Biolegend) with APC/Cyanine7 anti-human CD279 (PD-1) antibody (1:100: Biolegend) and incubated for 30 minutes at 4° C., in the dark. The cells were then centrifuged at 300 g for 5 minutes at 4° C., and the supernatant discarded. The next step included two repeats of centrifugation at 300 g for 5 minutes at 4° C., supernatant removal, and cell washing in 150 μL ice-cold Cell Staining Buffer (Biolegend). In the final step, the cells were re-suspended in 100 μL Cell Staining Buffer for the flow cytometry measurements (excitation: red laser; emission: […]).
as §1

[1] = test system: predicted off-target sites; assay: INDEL frequency at predicted off-target sites (CasOFFinder, targeted deep sequencing) in Jurkat cells; format: cell-based, human; conditions: crPDCD1: <=4 mismatches, remaining gNAs <=3 mismatches, vs MOCK, Pairwise T-test
Procedure: Another consideration for selecting gNAs is the potential for off-target cleavage events. The list of validated gNAs was analyzed using the CasOFFinder software to predict potential off-target editing sites in the genome with up to four mismatches between the gNA and the target DNA sequence. Using the Bioconductor R packages, the predicted off-target sites were matched with the human gene database, and those sites that targeted exons and introns within the genes were extracted. Afterwards, the degree of editing activity at these sites was examined by targeted next-generation sequencing, more specifically, at 25 predicted off-target sites for the top-two PDCD1 gNAs, i.e., crPDCD1_1 and crPDCD1_2. […] INDEL frequency at 43 putative off-target sites with up to three mismatches between gNA and target DNA sequence were assayed for the top-two gNAs targeting seven remaining genes (i.e., TIM3, LAG3, TIG1T, CTLA4, PTPN6, PTPN11, and CD247; spacer sequences in Table 5). […] Specifically. FIGS. 18-19 show INDEL frequency of MAD7 (n=3; Mean±SD) in T-cell leukemic cell line at predicted off-target sites analyzed by targeted deep sequencing. For crPDCD1. INDEL frequency was analyzed at the putative off-target editing sites with ≤4 mismatches between the gNA and target DNA sequence, and with ≤3 mismatches on the remaining gNAs.

[2] = test system: PDCD1, TIM3, LAG3, TIG1T, CTLA4, PTPN6, PTPN11 and CD247; assay: gNA screen: INDEL frequency at eight loci in Jurkat T-cell leukemia cell line; format: cell-based, human; conditions: gNAs adjacent to all YTTN PAM variants
Procedure: Ribonucleoprotein complexes (RNPs) were generated by incubating respective guide nucleic acids (gNAs) with MAD7 in the molar ratio of 3:2 gNA: MAD7 for 15 minutes at room temperature immediately before transfection. For Jurkat experiments, the RNP complexes were generated by mixing the respective gNA ([…]), MAD7 ([…]), and nuclease-free water, unless otherwise stated.
Lonza 4D Nucleofector with Shuttle unit (V4SC-2960 Nucleocuvette Strips) was used for transfection, following the manufacturer's instructions. […]
Extracted genomic DNA was quantified using the NanoDrop (ThermoFisher Scientific). […] The DNA was eluted from the beads with nuclease-free water and the size of the purified amplicons analyzed on a 2% agarose E-gel using the E-gel electrophoresis system (ThermoFisher Scientific). In the second PCR, unique pairs of Illumina-compatible indexes (Nextera XT Index Kit v2) were added to the amplicons using the KAPA HiFi HotStart Ready Mix (Roche). […] Sizes of the purified DNA fragments were validated on a 2% agarose gel using the E-gel electrophoresis system (ThermoFisher Scientific), quantified using Qubit dsDNA HS Assay Kit (Thermo Fisher) and then pooled in equimolar concentrations. […] The final library was sequenced on Illumina MiSeq System using the MiSeq Reagent Kit v.2 (300 cycles, […], paired-end reads). […]

Molecule: poly-L-glutamic acid [PGA]
- CAR insertion efficiency, treatment with PGA compared to without PGA (AAVS1; primary T-cells, P<=0.05, data not shown): higher

Molecule: crCD247_4: validated high-efficiency gNA, CD247 (guide CTAGCAGAGAAGGAAGAACCC; spacer only, further chemistry not given here)
- frameshifts frequency (fraction of frameshift to INDEL) (CD247): 97%

Molecule: crAAVS1: highly active gNA targeting the AAVS1 safe-harbor locus, spacer sequence in Table 5 (guide TTAGGATGGCCTTCTCCGACG; spacer only, further chemistry not given here)
- INDEL frequency at the AAVS1 locus (AAVS1 locus): highly active

Molecule: COc1ccc([C@@H](O)c2cc(-c3ncnc4cc(N5CCOCC5)ccc34)c(F)cc2Cl)nn1 [M3814]
- more efficient CAR insertion than other experiments (AAVS1): ~5 times
- increase in perfect HDR (primary Pan-T donors): 1.5 fold

Molecule: crPDCD1_2: gNA targeting the PDCD1 gene at the extracellular domain of the protein (guide TCTGCAGGGACAATAGGAGCC; spacer only, further chemistry not given here)
- surface expression of the PDCD1 protein (PDCD1 protein): 10%
- INDEL frequency at predicted off-target sites [1]: low-level off-target activity

Molecule: MAD7: type V-A Cas nuclease, SEQ ID NO: 37
- editing by PAM motif [2]: editing with all eight combinations of YTTN PAM
